According to patent publication US20260034112A1, “MULTI-CYCLIC IRAK1 AND IRAK4 INHIBITING COMPOUNDS AND USES THEREOF” (CHILDREN'S HOSPITAL MEDICAL CENTER, priority 2022, published 2026):
Values after ≈ are worked out from the molar mass of the structure shown. Values joined by “and” are separate entries in the source; they are usually repeats but may differ in a detail not shown here. Equal entries are not always repeated.

Assays:
[1] = Pharmacokinetic analysis, drug concentration after PO dosing; conditions: PO 100 mg/kg
[2] = system: NF-kB activity upon IL-1β stimulation (IL-1R) in THP1 NF-kB reporter cells; test: THP1 NF-kB reporter assay, IL-1β stimulation; format: cell-based, human; conditions: THP1 NF-kB reporter cells
[3] = Microsomal stability (Mic t½), mouse; format: in vitro ADME
[4] = system: MDSL, THP1, OCIAML3, AML(1714), and AML(1294) cells; test: Annexin V staining (apoptosis); format: cell-based, human; conditions: 500 nM, 48 hours
PAMPA = format: in vitro ADME
IRAK1 [5] = biological target: T1, IRAK1 (Homo sapiens, UniProt P51617); test: Reaction Biology Kinase Assay service, kinase inhibition (IC50); format: biochemical
T1 construct: purchased Reaction Biology (contract assay service)
T1 sequence (P51617 whole entry): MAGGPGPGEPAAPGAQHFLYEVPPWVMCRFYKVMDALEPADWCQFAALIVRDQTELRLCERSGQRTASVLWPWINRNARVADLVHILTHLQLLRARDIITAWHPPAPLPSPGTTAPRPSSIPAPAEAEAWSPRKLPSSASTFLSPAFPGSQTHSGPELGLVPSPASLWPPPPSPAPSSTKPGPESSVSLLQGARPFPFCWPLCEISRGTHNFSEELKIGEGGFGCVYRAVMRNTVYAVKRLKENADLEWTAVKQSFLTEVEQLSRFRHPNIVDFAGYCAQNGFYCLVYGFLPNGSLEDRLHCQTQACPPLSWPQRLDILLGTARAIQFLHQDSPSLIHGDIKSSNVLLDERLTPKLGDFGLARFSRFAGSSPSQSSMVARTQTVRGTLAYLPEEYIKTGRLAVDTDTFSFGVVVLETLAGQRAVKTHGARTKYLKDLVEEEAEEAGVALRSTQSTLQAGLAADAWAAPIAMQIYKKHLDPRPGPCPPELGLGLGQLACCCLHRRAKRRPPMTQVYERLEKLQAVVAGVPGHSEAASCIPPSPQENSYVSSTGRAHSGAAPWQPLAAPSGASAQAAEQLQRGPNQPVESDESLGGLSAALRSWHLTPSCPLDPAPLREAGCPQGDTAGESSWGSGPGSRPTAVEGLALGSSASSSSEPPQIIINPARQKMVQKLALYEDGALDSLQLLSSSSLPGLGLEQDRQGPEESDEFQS

AML(1714) cells = test: Xenograft of AML(1714) cells pre-treated in vitro for 21 days; format: in vivo; conditions: AML(1714) pre-treated 500 nM 21 days, xenografted NSGS mice
[6] = system: AML(64519), AML(0169), and MDS(76960) cells; test: Patient-derived AML/MDS xenografts treated orally; format: in vivo, NSGS mice; conditions: PO daily, Compound 14 30 mg/kg or Compound 15 100 mg/kg
[7] = system: MDS/AML cell lines and patient-derived samples; test: Differentiation: Wright-Giemsa stains and CD38 immunophenotyping; format: cell-based, human
IRAK4 [8] = biological target: T2, IRAK4 (Homo sapiens, UniProt Q9NWZ3); test: Reaction Biology Kinase Assay service, kinase inhibition (IC50); format: biochemical; conditions: functional biochemical assay; read-out: IRAK4 IC50
T2 construct: purchased Reaction Biology (contract assay service)
T2 sequence (Q9NWZ3 1-460): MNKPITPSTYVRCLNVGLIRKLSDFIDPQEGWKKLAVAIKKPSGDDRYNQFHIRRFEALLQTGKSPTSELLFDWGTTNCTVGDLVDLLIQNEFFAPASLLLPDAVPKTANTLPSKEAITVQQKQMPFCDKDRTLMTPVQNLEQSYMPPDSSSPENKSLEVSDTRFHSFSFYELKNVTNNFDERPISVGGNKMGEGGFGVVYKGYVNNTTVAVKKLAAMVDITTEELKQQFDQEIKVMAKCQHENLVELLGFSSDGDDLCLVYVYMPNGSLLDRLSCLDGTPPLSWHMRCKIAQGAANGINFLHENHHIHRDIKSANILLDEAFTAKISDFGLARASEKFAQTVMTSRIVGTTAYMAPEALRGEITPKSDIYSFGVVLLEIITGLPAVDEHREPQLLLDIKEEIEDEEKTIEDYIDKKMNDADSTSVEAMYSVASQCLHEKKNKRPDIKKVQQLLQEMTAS

Solubility = format: physicochemical
[9] = Plasma protein binding, mouse; format: in vitro ADME
[10] = system: healthy donor CD34+ cells; test: Myeloid and erythroid colony formation of healthy donor cells; format: cell-based, human; conditions: same concentrations as in the leukemic colony assay
[11] = system: NF-kB activity upon TLR2 stimulation with PAM3CSK4 in THP1-Blue NF-kB SEAP reporter cells; test: THP1-Blue NF-kB SEAP reporter assay, TLR2 stimulation with PAM3CSK4; format: cell-based, human
[12] = Microsomal stability (Mic t½), human; format: in vitro ADME
[13] = system: IRAK1 phosphorylation in MDS/AML cells; test: Immunoblotting for phospho-IRAK1; format: cell-based, human; conditions: THP1 and MDSL cells, 500 nM, 24 hours
[14] = Plasma protein binding, human; format: in vitro ADME
[15] = Microsomal stability (Mic t½), rat; format: in vitro ADME
IRAK4 [16] = biological target: T2, IRAK4; test: DiscoverX KINOMEscan Profiling Service, dissociation constant; format: binding
IRAK1 [17] = biological target: T1, IRAK1; test: as above; format: binding
THP1 cells = format: cell-based, human; conditions: AML cells versus vehicle
[18] = system: MDS/AML cell lines and patient-derived samples; test: Clonogenic assay (colony formation in methylcellulose); format: cell-based, human

With `CC1(c2ccc3ncc(-c4cccc(N[C@@H]5CCNC5)n4)n3c2)CC1` [Compound 15] the “Mean Free Drug Concentration” value ([1]; 0.25 h) was 263 nM, the “Mean Total Drug Concentration” value ([1]; 0.25 h) was 3845 nM and the “Mean Free Drug Concentration” value ([1]; 0.5 h) was 258 nM. The “Mean Total Drug Concentration” value ([1]; 0.5 h) was 3764 nM, the “Mean Free Drug Concentration” value ([1]; 1 h) was 207 nM and the “Mean Total Drug Concentration” value ([1]; 1 h) was 3018 nM. For the same compound, the “Mean Free Drug Concentration” value ([1]; 2 h) was 139 nM, the “Mean Total Drug Concentration” value ([1]; 2 h) was 2034 nM and the “Mean Free Drug Concentration” value ([1]; 4 h) was 109 nM. For the same compound, the “Mean Total Drug Concentration” value ([1]; 4 h) was 1594 nM, the “Mean Free Drug Concentration” value ([1]; 8 h) was 50 nM and the “Mean Total Drug Concentration” value ([1]; 8 h) was 726 nM. For the same compound, the “Mean Free Drug Concentration” value ([1]; 24 h) was 1 nM, the “Mean Total Drug Concentration” value ([1]; 24 h) was 9 nM and the IC50 ([2]; read-out: IC50 vs. IL-1β (NF-kB activation)) was 9.3 nM. For the same compound, the “Suppression of NF-kB signaling through the IL-1 receptor” value ([2]; result in words) was “completely suppress”, the “Tier 2 Mic t½ (m)” value [3] was 29 min and the “Apoptosis (Annexin V staining)” value [4] was “more effective than Compound 14 at mediating apoptosis”. The PAMPA (PAMPA) was 495 10^−6 cm/s, the “IRAK4:IRAK1 potency ratio” value (IRAK1 [5]; calculated from the IRAK1 and IRAK4 IC50) was 36 and the IC50 (IRAK1 [5]; functional biochemical assay, read-out: IRAK1 IC50) was 32 nM. The “Leukemic engraftment and AML development of pre-treated cells” value (AML(1714) cells) was “complete loss of leukemic engraftment and AML development”, the Median survival ([6]; NSGS mice engrafted with AML(0169), vehicle 29 days) was 40 days and the “Leukemic cell engraftment in the PB” value ([6]; AML(64519), AML(0169), MDS(76960) at day 40, 29, 48, versus vehicle) was “significantly reduced”. For the same compound, the “Morphology (Wright-Giemsa staining)” value ([7]; 500 nM, 12 days) was “heterogeneous morphologies and size and increased cytoplasmic to nuclear ratios”, the “Expression of CD38” value ([7]; 12 days of treatment, versus Compound 14 or vehicle) was “greater expression of CD38” and the IC50 (IRAK4 [8]) was 0.9 nM. The Solubility (Solubility) was 31 mg/mL (≈ 93 mM), the “Plasma Prot Bind (% free - ms)” value [9] was 6.85 % free and the “Erythroid colony formation of healthy donor CD34+ cells” value [10] was “increased erythroid colony formation”. For the same compound, the “Myeloid cell colonies of healthy donor CD34+ cells” value [10] was “only modesty inhibited”, the IC50 ([11]; THP1 NF-kB reporter cells, read-out: IC50 vs. Pam3CSK4 (TLR2-mediated NF-kB activation)) was 6.3 nM and 4.5 nM and the “Suppression of TLR2-mediated activation of NF-kB” value ([11]; at 100 nM, THP1 cells) was “completely suppressed”. The “Tier 2 Mic t½ (h)” value [12] was 1.7 h, the “Phosphorylation of IRAK1” value [13] was “inhibited auto-phosphorylation of IRAK1” and the “Plasma Prot Bind (% free - h)” value [14] was 2.46 % free. The “Tier 1 Mic t½ (r)” value [15] was over 30 min, the “Tier 2 Mic t½ (r)” value [15] was 68 min and the Kd (IRAK4 [16]) was 0.2 nM. For the same compound, the Kd (IRAK1 [17]) was 2.2 nM, the “Genes of the IRAK1/4 AML signature suppressed” value (THP1 cells) was about 65% and the “Colony formation after in vitro exposure” value ([18]; AML(1714) cells, 500 nM for 21 days, then 250 live cells plated, 10 days) was “significantly diminished colony formation”. The “Suppression of leukemia progenitor cell colony formation” value ([18]; MDS/AML cell lines and patient-derived samples, 250 nM or 1 μM, complete in all samples except THP1) was “complete suppression of leukemia progenitor cell colony formation”.
